Values quoted from earlier work, collected in US20170196950A1, “METHOD FOR PRODUCING AUTOLOGOUS TOLEROGENIC DENDRITIC CELLS (TOLDCS) WITH SPECIFIC ANTIGENS AND THEIR USE IN THE PREPARATION OF A MEDICAMENT USEFUL FOR THE TREATMENT OF SYSTEMIC LUPUS ERYTHEMATOSUS (SLE)” (PONTIFICIA UNIVERSIDAD CATOLICA DE CHILE, priority 2014, published 2017).

Legend:
lupus nephritis patients = settings: maintenance phase
lupus patients = settings: controlled clinical studies

| Molecule | Patients who presented serious adverse effects (lupus nephritis patients) [%] | Patients withdrawn from the study (lupus nephritis patients) [%] | Efficacy in lupus (lupus patients) |
| --- | --- | --- | --- |
| COc1c(C)c2c(c(O)c1C/C=C(\C)CCC(=O)OCCN1CCOCC1)C(=O)OC2 [MMF, mycophenolate mofetil] | 23.5 | 25.2 |  |
| Cn1cnc([N+](=O)[O-])c1Sc1ncnc2nc[nH]c12 [azathioprine] | 33.3 | 39.6 |  |
| rituximab |  |  | no efficacy |
